Laboratory results taken from US10463644B2, “Uses of sesquiterpene lactone compounds and their derivatives in drugs preparation” (ACCENDATECH, priority 2013, dated 2019).
Read-outs that look alike come from different tables or passages of the source.

How the values were obtained:
[1] = tested on: PGE2 secreted by synoviocyte; experiment: Content of PGE2 in culture supernatant of synoviocyte of RA model rats given test compound; type: in vivo; conditions: rat RA model, dose 30 mg/kg.2d; normal control 8.34 ± 1.29, NaCl 32.44 ± 10.32
Summary of the method: (§1)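 RA model rats received test compound at 30 mg/kg.2d, with normal control and NaCl groups run in parallel. Synoviocytes were then cultured from the animals, and the culture supernatant was assayed for secreted cytokine or PGE2.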

cancer stem cells = experiment: Survival rate of cancer stem cells after test compound is added (flow cytometry, Annexin V-FITC/PI, clinical specimen); type: cell-based, patient; conditions: Homo sapiens, 18 h
Summary of the method: (§2)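 Patient tumour or leukaemia cells, identified by cancer-specific stem-cell markers (CD34+/CD38+ for AML), are treated with compound for 18 hours in serum-free IMDM. Apoptosis is then measured as Annexin V-FITC/PI staining by flow cytometry.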

[2] = tested on: IL-1β secreted by synoviocyte; experiment: Content of IL-1β in culture supernatant of synoviocyte of RA model rats given test compound; type: in vivo; conditions: rat RA model, dose 30 mg/kg.2d; normal control 0.16 ± 0.034, NaCl 0.49 ± 0.136
Summary of the method: as §1

[3] = tested on: TNF-α secreted by synoviocyte; experiment: Content of TNF-α in culture supernatant of synoviocyte of RA model rats given test compound; type: in vivo; conditions: rat RA model, dose 30 mg/kg.2d; normal control 0.38 ± 0.027, NaCl 0.74 ± 0.098
Summary of the method: as §1

cancer cells = experiment: Survival rate of cancer cells after test compound is added (flow cytometry, Annexin V-FITC/PI, clinical specimen); type: cell-based, patient; conditions: Homo sapiens, 18 h, read-out: Survival rate (%) All cells (Stem cells and ordinary cells)
Summary of the method: as §2

[4] = Head and neck squamous cell carcinomas

SMILES: C=C1C(=O)O[C@@H]2[C@@H]3[C@@H](CC[C@@]3(C)O)C(=C)CC[C@@H]12 [Compound 48]
- Content of PGE2 in culture supernatant of synoviocyte (x ± s) [1]: 26.65 ± 2.45 ng/mL
- viability at 10 µM (cancer stem cells; AML): 47%
- viability at 20 µM (cancer stem cells; AML): 38%
- viability at 10 µM (cancer stem cells; Brain glioma): 52%
- viability at 20 µM (cancer stem cells; Brain glioma): 43%
- viability at 10 µM (cancer stem cells; Brain tumor): 66%
- viability at 20 µM (cancer stem cells; Brain tumor): 53%
- viability at 10 µM (cancer stem cells; Breast cancer): 54%
- viability at 20 µM (cancer stem cells; Breast cancer): 47%
- viability at 10 µM (cancer stem cells; CLL): 46%
- viability at 20 µM (cancer stem cells; CLL): 38%
- viability at 10 µM (cancer stem cells; CML): 51%
- viability at 20 µM (cancer stem cells; CML): 46%
- viability at 10 µM (cancer stem cells; Children hepatoblastoma): 68%
- viability at 20 µM (cancer stem cells; Children hepatoblastoma): 56%
- viability at 10 µM (cancer stem cells; Colon adenocarcinoma): 58%
- viability at 20 µM (cancer stem cells; Colon adenocarcinoma): 49%
- viability at 10 µM (cancer stem cells; Colorectal cancer): 66%
- viability at 20 µM (cancer stem cells; Colorectal cancer): 55%
- viability at 10 µM (cancer stem cells; Gastric cancer): 51%
- viability at 20 µM (cancer stem cells; Gastric cancer): 39%
- viability at 10 µM (cancer stem cells; Gastrointestinal tumor): 57%
- viability at 20 µM (cancer stem cells; Gastrointestinal tumor): 52%
- viability at 10 µM (cancer stem cells; Glioma): 69%
- viability at 20 µM (cancer stem cells; Glioma): 60%
- viability at 10 µM (cancer stem cells; [4]): 64%
- viability at 20 µM (cancer stem cells; [4]): 58%
- viability at 10 µM (cancer stem cells; Laryngeal cancer): 63%
- viability at 20 µM (cancer stem cells; Laryngeal cancer): 55%
- viability at 10 µM (cancer stem cells; Liver cancer): 74%
- viability at 20 µM (cancer stem cells; Liver cancer): 61%
- viability at 10 µM (cancer stem cells; Lung adenocarcinoma): 67%
- viability at 20 µM (cancer stem cells; Lung adenocarcinoma): 55%
- viability at 10 µM (cancer stem cells; Lung cancer): 61%
- viability at 20 µM (cancer stem cells; Lung cancer): 54%
- viability at 10 µM (cancer stem cells; Malignant melanoma): 82%
- viability at 20 µM (cancer stem cells; Malignant melanoma): 76%
- viability at 10 µM (cancer stem cells; Nasopharynx cancer): 57%
- viability at 20 µM (cancer stem cells; Nasopharynx cancer): 48%
- viability at 10 µM (cancer stem cells; Ovarian cancer): 56%
- viability at 20 µM (cancer stem cells; Ovarian cancer): 45%
- viability at 10 µM (cancer stem cells; Pancreatic cancer): 55%
- viability at 20 µM (cancer stem cells; Pancreatic cancer): 49%
- viability at 10 µM (cancer stem cells; Prostate cancer): 62%
- viability at 20 µM (cancer stem cells; Prostate cancer): 51%
- viability at 10 µM (cancer stem cells; Retinoblastoma): 62%
- viability at 20 µM (cancer stem cells; Retinoblastoma): 54%
- viability at 10 µM (cancer stem cells; Skin cancer): 46%
- viability at 20 µM (cancer stem cells; Skin cancer): 39%
- Content of IL-1β in culture supernatant of synoviocyte (x ± s) [2]: 0.38 ± 0.046 ng/mL
- Content of TNF-α in culture supernatant of synoviocyte (x ± s) [3]: 0.62 ± 0.054 ng/mL
- viability at 10 µM (cancer cells; AML): 59%
- viability at 20 µM (cancer cells; AML): 48%
- viability at 10 µM (cancer cells; Brain glioma): 66%
- viability at 20 µM (cancer cells; Brain glioma): 54%
- viability at 10 µM (cancer cells; Brain tumor): 78%
- viability at 20 µM (cancer cells; Brain tumor): 69%
- viability at 10 µM (cancer cells; Breast cancer): 76%
- viability at 20 µM (cancer cells; Breast cancer): 58%
- viability at 10 µM (cancer cells; CLL): 67%
- viability at 20 µM (cancer cells; CLL): 48%
- viability at 10 µM (cancer cells; CML): 69%
- viability at 20 µM (cancer cells; CML): 51%
- viability at 10 µM (cancer cells; Children hepatoblastoma): 75%
- viability at 20 µM (cancer cells; Children hepatoblastoma): 68%
- viability at 10 µM (cancer cells; Colon adenocarcinoma): 66%
- viability at 20 µM (cancer cells; Colon adenocarcinoma): 56%
- viability at 10 µM (cancer cells; Colorectal cancer): 79%
- viability at 20 µM (cancer cells; Colorectal cancer): 67%
- viability at 10 µM (cancer cells; Gastric cancer): 66%
- viability at 20 µM (cancer cells; Gastric cancer): 48%
- viability at 10 µM (cancer cells; Gastrointestinal tumor): 73%
- viability at 20 µM (cancer cells; Gastrointestinal tumor): 62%
- viability at 10 µM (cancer cells; Glioma): 78%
- viability at 20 µM (cancer cells; Glioma): 74%
- viability at 10 µM (cancer cells; [4]): 73%
- viability at 20 µM (cancer cells; [4]): 68%
- viability at 10 µM (cancer cells; Laryngeal cancer): 76%
- viability at 20 µM (cancer cells; Laryngeal cancer): 66%
- viability at 10 µM (cancer cells; Liver cancer): 82%
- viability at 20 µM (cancer cells; Liver cancer): 73%
- viability at 10 µM (cancer cells; Lung adenocarcinoma): 77%
- viability at 20 µM (cancer cells; Lung adenocarcinoma): 64%
- viability at 10 µM (cancer cells; Lung cancer): 72%
- viability at 20 µM (cancer cells; Lung cancer): 67%
- viability at 10 µM (cancer cells; Malignant melanoma): 88%
- viability at 20 µM (cancer cells; Malignant melanoma): 86%
- viability at 10 µM (cancer cells; Nasopharynx cancer): 64%
- viability at 20 µM (cancer cells; Nasopharynx cancer): 59%
- viability at 10 µM (cancer cells; Ovarian cancer): 68%
- viability at 20 µM (cancer cells; Ovarian cancer): 61%
- viability at 10 µM (cancer cells; Pancreatic cancer): 68%
- viability at 20 µM (cancer cells; Pancreatic cancer): 62%
- viability at 10 µM (cancer cells; Prostate cancer): 75%
- viability at 20 µM (cancer cells; Prostate cancer): 62%
- viability at 10 µM (cancer cells; Retinoblastoma): 82%
- viability at 20 µM (cancer cells; Retinoblastoma): 69%
- viability at 10 µM (cancer cells; Skin cancer): 62%
- viability at 20 µM (cancer cells; Skin cancer): 47%
